Test results from patent US20210113560A1, “METHOD OF TREATING FIBROTIC DISEASE” (BLADE THERAPEUTICS, INC., priority 2018, published 2021).
Peptide text beside a SMILES is read from it. * marks the point of attachment. Cbz = O=C(OCc1ccccc1)*

Tests used:
CAPN2 = target: T1, CAPN2 (Homo sapiens, UniProt P17655); test: Activity based probe (ABP) off-rate assay of CAPN2 inhibitors, SDS-PAGE readout; format: binding; settings: t1/2=0.693/k from first order decay fit; complex diluted ten-fold into 10 uM ABP; time points 0-24 hours
T1 sequence (P17655 20-700 limits assumed): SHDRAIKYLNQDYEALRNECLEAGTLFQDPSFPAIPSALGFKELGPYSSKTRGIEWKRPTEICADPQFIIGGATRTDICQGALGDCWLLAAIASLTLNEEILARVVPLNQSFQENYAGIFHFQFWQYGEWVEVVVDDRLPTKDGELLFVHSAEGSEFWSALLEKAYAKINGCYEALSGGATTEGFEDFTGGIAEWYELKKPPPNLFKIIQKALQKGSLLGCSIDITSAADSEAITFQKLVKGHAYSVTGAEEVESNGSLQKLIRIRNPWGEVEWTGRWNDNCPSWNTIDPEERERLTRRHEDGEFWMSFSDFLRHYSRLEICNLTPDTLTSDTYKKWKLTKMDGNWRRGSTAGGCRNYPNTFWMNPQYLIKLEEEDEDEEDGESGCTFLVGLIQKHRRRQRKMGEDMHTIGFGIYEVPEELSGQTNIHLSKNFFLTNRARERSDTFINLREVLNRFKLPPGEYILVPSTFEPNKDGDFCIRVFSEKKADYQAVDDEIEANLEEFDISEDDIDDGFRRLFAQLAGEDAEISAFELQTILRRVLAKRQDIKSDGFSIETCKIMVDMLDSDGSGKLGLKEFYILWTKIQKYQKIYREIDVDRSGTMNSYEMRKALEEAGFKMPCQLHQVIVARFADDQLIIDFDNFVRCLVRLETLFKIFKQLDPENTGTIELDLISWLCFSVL
T1 sequence (P04632 1-268 partner): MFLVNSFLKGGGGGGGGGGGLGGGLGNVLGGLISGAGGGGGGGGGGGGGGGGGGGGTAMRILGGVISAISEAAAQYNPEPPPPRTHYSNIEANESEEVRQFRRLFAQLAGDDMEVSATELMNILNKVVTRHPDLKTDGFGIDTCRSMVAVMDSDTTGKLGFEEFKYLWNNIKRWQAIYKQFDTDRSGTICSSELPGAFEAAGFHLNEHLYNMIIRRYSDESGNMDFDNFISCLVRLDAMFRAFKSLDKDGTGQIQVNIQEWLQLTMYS
Excerpt: FIG. 2: Dissociation of Compound 10 from calpain 2 (CAPN2). Complexes of Compound 10 with CAPN2 were generated, followed by dilution into an excess of Compound 29 (a probe for unbound CAPN2). Samples were taken at the time points (lanes 1-6 for 0, 1, 2, 4, 7 and 24 hr respectively) and analyzed by gel electrophoresis to determine the amount of Compound 29 probe incorporation. Lanes 7 and 8 reflect negative and positive controls for probe labeling, respectively. The dissociation rate and half-life for the Compound 10-CAPN2 complex was then calculated.
A fluorescently labeled irreversible activity based probe (ABP) was used to measure off rates of CAPN2 inhibitors as follows. The ABP molecule contains a fluoro-methyl ketone warhead that irreversibly reacts with the active site cysteine nucleophile of CAPN enzymes. ABP is also labeled with the Alexa 647 fluorophore which allows for sensitive quantitation of the CAPN2.ABP adduct.
The assay is typically performed by pre-incubating 2 uM CAPN2 with […] test inhibitor for 30 minutes in assay buffer (50 mM Tris-HCl, 100 mM NaCl, 2 mM CaCl2, 1 mM DTT, 0.02% Brij-35, pH7.4). This incubation mixture (containing the CAPN2.inhibitor complex) is diluted ten-fold into the same assay buffer containing 10 uM ABP. This is time zero at which an aliquot is immediately withdrawn and quenched by adding denaturing SDS-PAGE loading buffer and heating at 95° C. for 5 minutes. Additional aliquots are typically withdrawn and quenched at time points of 0.5, 1, 2, 4, 7, 24 hours. Quenched samples are stored frozen at −80° C. until SDS-PAGE analysis.
For a given test inhibitor, all time points are run on the same gel with the following two control samples. An assay minimum control is prepared by pre-incubating 2 uM CAPN2 in assay buffer for 1 hour. The incubation mixture is diluted, ten-fold into the same assay buffer containing 10 uM ABP, reacted for 30 minutes and quenched. After the initial 1 hour incubation, the CAPN2 enzyme is autolytically degraded and should generate little to no signal. An assay maximum control is prepared by adding 10 uM ABP to 0.2 uM CAPN2 in assay buffer and incubating for 30 minutes and quenching.
After SDS-PAGE, the gel is scanned using a LAS4000 ImageQuant platform to quantify the Alexa 647 intensity at ˜75 kDa (molecular weight of full length activated CAPN2). The minimum and maximum controls on each gel are used to calculate percentage of test compound bound at each time point. […] Using the equation t1/2=0.693/k, the off rate (k) is converted to and reported as CAPN2.inhibitor complex half-life (t1/2).

CatK = target: T2, CatK (Homo sapiens, UniProt P43235); test: Dilution of enzyme-inhibitor complex into substrate, reactivation over time (FIG. 1); format: biochemical; settings: compared to unbound CatK control
T2 sequence (P43235 115-329): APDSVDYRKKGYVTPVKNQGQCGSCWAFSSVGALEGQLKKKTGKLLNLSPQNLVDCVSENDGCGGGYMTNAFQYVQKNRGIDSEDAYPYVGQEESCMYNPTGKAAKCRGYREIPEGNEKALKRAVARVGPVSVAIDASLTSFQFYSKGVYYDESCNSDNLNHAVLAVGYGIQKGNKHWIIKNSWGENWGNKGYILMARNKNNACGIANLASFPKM
Excerpt: (§1) FIG. 1: Dissociation of Compound 10 from calpain 2 (CAPN2). Complexes of Compound 10 with either CatK or CAPN2 were generated, followed by dilution into substrate-containing assay wells to initiate data collection. Reactivation of the target enzymes due to dissociation of the enzyme-inhibitor complexes was observed as a function of time. […] CAPN2 control (upper dashed line). Thus, inhibition of CAPN2 by Compound 10 is retained even in the absence of excess Compound 10. Further, this effect is selective and provides a basis for specific action of Compound 10 against CAPN2.

calpain 2 (CAPN2) = target: T3, calpain 2 (CAPN2) (Homo sapiens, UniProt P17655); test: as above; format: biochemical; settings: relative to unbound CAPN2 control; absence of excess compound
T3 sequence (P17655 20-700 limits assumed): T1 sequence (P17655 20-700 limits assumed)
T3 sequence (P04632 1-268 partner): T1 sequence (P04632 1-268 partner)
Excerpt: as §1

Cn1cc(C(=O)NC(Cc2ccccc2)C(=O)C(N)=O)c(-c2cccc3c2OC(F)(F)O3)n1 (centres unmarked) [Compound 41]
Half-life of Compound-CAPN2 Complex (CAPN2): 0.45 h

CC[C@H](NC(=O)[C@H](CC(C)C)NC(=O)OCc1ccccc1)C(=O)C(=O)NCc1cc(OC)cc(OC)c1 [Compound 23]
Half-life of Compound-CAPN2 Complex (CAPN2): 1 h

NC(=O)C(=O)C(Cc1ccccc1)NC(=O)c1c(C(F)(F)F)ccc(Cl)c1F (centres unmarked) [Compound 8]
Half-life of Compound-CAPN2 Complex (CAPN2): 2.4 h

NC(=O)C(=O)C(Cc1ccccc1)NC(=O)c1nsnc1-c1ccccn1 (centres unmarked) [Compound 32]
Half-life of Compound-CAPN2 Complex (CAPN2): 2.32 h

NC(=O)C(=O)C(Cc1ccccc1)NC(=O)c1nsnc1-c1ccccc1 (centres unmarked) [Compound 24]
Half-life of Compound-CAPN2 Complex (CAPN2): 6.6 h

Cc1nc(-c2ccccc2F)c(C(=O)NC(Cc2ccccc2)C(=O)C(=O)O)o1 (centres unmarked) [Compound 40]
Half-life of Compound-CAPN2 Complex (CAPN2): 0.467 h

Cn1cc(C(=O)NC(Cc2ccccc2)C(=O)C(N)=O)c(-c2ccccc2F)n1 (centres unmarked) [Compound 16]
Half-life of Compound-CAPN2 Complex (CAPN2): 0.867 h

CCN(CC)Cc1ccc(/C=C/c2ccccc2C(=O)NC(Cc2ccccc2)C(=O)C(N)=O)cc1 (centres unmarked) [Compound 27]
Half-life of Compound-CAPN2 Complex (CAPN2): 0.9 h

NC(=O)C(=O)[C@H](Cc1ccccc1)NC(=O)c1cnoc1-c1ccccc1 [Compound 25]
Half-life of Compound-CAPN2 Complex (CAPN2): 1.6 h

Cc1nc(-c2cccc(F)c2)c(C(=O)NC(Cc2ccccc2)C(=O)C(N)=O)o1 (centres unmarked) [Compound 11]
Half-life of Compound-CAPN2 Complex (CAPN2): 3.53 h

Cn1cc(C(=O)NC(Cc2ccccc2)C(=O)C(N)=O)c(-c2cccc(F)c2)n1 (centres unmarked) [Compound 13]
Half-life of Compound-CAPN2 Complex (CAPN2): 0.633 h

Cc1nc(-c2ccccc2)c(C(=O)NC(Cc2ccccc2)C(=O)C(N)=O)o1 (centres unmarked) [Compound 14]
Half-life of Compound-CAPN2 Complex (CAPN2): 5.4 h

Cc1c(F)cccc1-c1nsnc1C(=O)NC(Cc1ccccc1)C(=O)C(N)=O (centres unmarked) [Compound 36]
Half-life of Compound-CAPN2 Complex (CAPN2): 0.75 h

NC(=O)C(=O)C(Cc1ccccc1)NC(=O)c1cn(C2CC2)nc1-c1ccccc1 (centres unmarked) [Compound 12]
Half-life of Compound-CAPN2 Complex (CAPN2): 0.333 h

NC(=O)C(=O)C(Cc1ccccc1)NC(=O)c1nsnc1-c1cccc(F)c1 (centres unmarked) [Compound 19]
Half-life of Compound-CAPN2 Complex (CAPN2): 2.8 h

O=C(O)C(=O)C(Cc1ccccc1)NC(=O)c1nsnc1-c1ccccc1 (centres unmarked) [Compound 33]
Half-life of Compound-CAPN2 Complex (CAPN2): 1.87 h

NC(=O)C(=O)C(Cc1ccccc1)NC(=O)c1nsnc1-c1cnccn1 (centres unmarked) [Compound 35]
Half-life of Compound-CAPN2 Complex (CAPN2): 1.03 h

O=CC(Cc1ccccc1)NC(=O)c1nsnc1-c1ccccc1 (centres unmarked) [Compound 7]
Half-life of Compound-CAPN2 Complex (CAPN2): 1.05 h

Cc1nc(-c2ccccc2F)c(C(=O)NC(Cc2ccccc2)C(=O)C(N)=O)o1 (centres unmarked) [Compound 10]
Half-life of Compound-CAPN2 Complex (CAPN2): 2.7 h
Reactivation of CatK after dilution of the CatK-compound complex (CatK): almost an immediate reactivation
Retention of CAPN2 inhibition after dilution of the complex (calpain 2 (CAPN2)): inhibition is retained

Cn1cc(C(=O)N[C@@H](Cc2ccccc2)C(=O)C(N)=O)c(-c2ccccc2)n1 [Compound 26]
Half-life of Compound-CAPN2 Complex (CAPN2): 0.483 h

Cc1cc(C(=O)NC(Cc2ccccc2)C(=O)C(N)=O)n(-c2ccccn2)n1 (centres unmarked) [Compound 5]
Half-life of Compound-CAPN2 Complex (CAPN2): 0.467 h

CC(C)C(NC(=O)OCc1ccccc1)C(=O)NC(Cc1ccccc1)C(=O)C(N)=O (centres unmarked) [Compound 30]
Half-life of Compound-CAPN2 Complex (CAPN2): 17.77 h

O=C(NC1CC1)C(=O)C(Cc1ccccc1)NC(=O)[C@H]1CCC(=O)N1Cc1ccccc1 (some centres unmarked) [Compound 9]
Half-life of Compound-CAPN2 Complex (CAPN2): 0.083 h

NC(=O)C(=O)C(Cc1ccccc1)NC(=O)c1nsnc1-c1cccc2c1OC(F)(F)O2 (centres unmarked) [Compound 31]
Half-life of Compound-CAPN2 Complex (CAPN2): 4.87 h

CC(C)[C@H](NC(=O)OCc1ccccc1)C(=O)N[C@H](C=O)Cc1ccccc1 [Compound 28] (Cbz-Val-Phe-aldehyde)
Half-life of Compound-CAPN2 Complex (CAPN2): 3 h

NC(=O)C(=O)C(Cc1ccccc1)NC(=O)c1cn(C(F)F)nc1-c1ccccc1 (centres unmarked) [Compound 17]
Half-life of Compound-CAPN2 Complex (CAPN2): 2.1 h

Cn1cc(C(=O)NC(Cc2ccccc2)C(=O)C(N)=O)c(-c2cccc3cn[nH]c23)n1 (centres unmarked) [Compound 37]
Half-life of Compound-CAPN2 Complex (CAPN2): 0.65 h

NC(=O)C(=O)C(Cc1ccccc1)NC(=O)c1nsnc1-c1ccncn1 (centres unmarked) [Compound 34]
Half-life of Compound-CAPN2 Complex (CAPN2): 1.27 h

Cc1cncc(-c2nn(C(F)F)cc2C(=O)NC(Cc2ccccc2)C(=O)C(N)=O)c1 (centres unmarked) [Compound 39]
Half-life of Compound-CAPN2 Complex (CAPN2): 0.533 h

Cc1cc(C(=O)N[C@@H](Cc2ccccc2)C(=O)C(N)=O)n(-c2ccccc2)n1 [Compound 21]
Half-life of Compound-CAPN2 Complex (CAPN2): 2.7 h

NC(=O)C(=O)C(Cc1ccccc1)NC(=O)c1nsnc1-c1ccccc1F (centres unmarked) [Compound 18]
Half-life of Compound-CAPN2 Complex (CAPN2): 5.5 h

NC(=O)C(=O)C(Cc1ccccc1)NC(=O)c1nsnc1-c1cccc2c1OC(F)(F)O2 (centres unmarked) [Compound 2]
Half-life of Compound-CAPN2 Complex (CAPN2): 9.63 h

CC(C)[C@@H](NC(=O)CCCNC(=O)CCCCCC1(C)C(/C=C/C=C/C=C2/N(CCCS(=O)(=O)O)c3ccccc3C2(C)C)=[N+](CCCS(=O)(=O)O)c2ccc(S(=O)(=O)O)cc21)C(=O)NC(Cc1ccccc1)C(=O)CF (some centres unmarked) [Compound 29]
Half-life of Compound-CAPN2 Complex (CAPN2): 7 h

O=C(NC1CC1)C(=O)C(Cc1ccccc1)NC(=O)c1nsnc1-c1ccccc1 (centres unmarked) [Compound 6]
Half-life of Compound-CAPN2 Complex (CAPN2): 0.383 h

Cn1cc(C(=O)NC(Cc2ccccc2)C(=O)C(N)=O)c(-c2cccc3oc(=O)[nH]c23)n1 (centres unmarked) [Compound 38]
Half-life of Compound-CAPN2 Complex (CAPN2): 0.65 h

NC(=O)C(=O)C(Cc1ccccc1)NC(=O)c1cn(C(F)F)nc1-c1cccc2cnccc12 (centres unmarked) [Compound 1]
Half-life of Compound-CAPN2 Complex (CAPN2): 2.8 h
